Patent US7135193B2, “Liposome compositions of porphyrin photosensitizers” (QLT, Inc., priority 1992, dated 2006)

Assay: Chemical stability of liposomal BPD-MA: potency, degradation products and pH of the reconstituted solution on storage
Assay type: physicochemical
Settings: cryodesiccated liposome formulation
Protocol: The chemical stability of the constituted dosage form was followed by monitoring the potency, degradation products and pH of the reconstituted solution. The potency of the reconstituted parenteral dosage form was assessed by chromatography with potency calculated on as is basis.

## benzoporphyrin derivative monoacid [BPD-MA]
  projected shelf life: at least two years
Room temperature
  period over which potency was maintained: at least nine months
